According to ChEMBL document CHEMBL5346907, “Discovery of a novel oral type Ⅰ CDK8 inhibitor against acute myeloid leukemia” (Eur J Med Chem, 2023):

Legend:
[1] = target: Cyclin-dependent kinase 2/cyclin E1 (Homo sapiens) (UniProt P24864+P24941); experiment: Inhibition of CDK2/Cyclin E1 (unknown origin) at 1 uM preincubated for 10 mins followed by substrate addition measured for 60 to 120 mins by HTRF assay relative to control; format: protein-complex assay; conditions: time 70-130 min
CDK9/cyclin T1 = CDK9/cyclin T1 (Homo sapiens, UniProt P50750); experiment: Inhibition of CDK9/Cyclin T1 (unknown origin) preincubated for 10 mins followed by substrate addition measured for 60 to 120 mins by HTRF assay; format: protein-complex assay
[2] = target: Cytoplasmic tyrosine-protein kinase BMX (Homo sapiens) (UniProt P51813); experiment: Inhibition of BMX (unknown origin) at 1 uM preincubated for 10 mins followed by substrate addition measured for 60 to 120 mins by HTRF assay relative to control; conditions: time 70-130 min
[3] = target: Macrophage-stimulating protein receptor (Homo sapiens) (UniProt Q04912); experiment: Inhibition of RON (unknown origin) at 1 uM preincubated for 10 mins followed by substrate addition measured for 60 to 120 mins by HTRF assay relative to control; conditions: time 70-130 min
MDA-MB-231 = experiment: Antiproliferative activity against human MDA-MB-231 cells incubated for 48 hrs by CCK8 assay; format: functional
GES1 = experiment: Antiproliferative activity against human GES1 cells incubated for 48 hrs by CCK8 assay; format: functional
[4] = target: Insulin receptor-related protein (Homo sapiens) (UniProt P14616); experiment: Inhibition of IRR (unknown origin) at 1 uM preincubated for 10 mins followed by substrate addition measured for 60 to 120 mins by HTRF assay relative to control; conditions: time 70-130 min
[5] = Acute toxicity in C57BL/6 mouse assessed as histopathological change in heart at 2000 mg/kg, IG measured for 14 days by H&E staining based analysis; format: organism-based; conditions: in vivo, po, 336 h, time 14 day
[6] = target: Ephrin type-B receptor 1 (Homo sapiens) (UniProt P54762); experiment: Inhibition of EPHB1 (unknown origin) at 1 uM preincubated for 10 mins followed by substrate addition measured for 60 to 120 mins by HTRF assay relative to control; conditions: time 70-130 min
[7] = target: Ephrin type-B receptor 4 (Homo sapiens) (UniProt P54760); experiment: Inhibition of EPHB4 (unknown origin) at 1 uM preincubated for 10 mins followed by substrate addition measured for 60 to 120 mins by HTRF assay relative to control; conditions: time 70-130 min
Sequence of Ephrin type-B receptor 4 (Homo sapiens) (P54760 whole entry): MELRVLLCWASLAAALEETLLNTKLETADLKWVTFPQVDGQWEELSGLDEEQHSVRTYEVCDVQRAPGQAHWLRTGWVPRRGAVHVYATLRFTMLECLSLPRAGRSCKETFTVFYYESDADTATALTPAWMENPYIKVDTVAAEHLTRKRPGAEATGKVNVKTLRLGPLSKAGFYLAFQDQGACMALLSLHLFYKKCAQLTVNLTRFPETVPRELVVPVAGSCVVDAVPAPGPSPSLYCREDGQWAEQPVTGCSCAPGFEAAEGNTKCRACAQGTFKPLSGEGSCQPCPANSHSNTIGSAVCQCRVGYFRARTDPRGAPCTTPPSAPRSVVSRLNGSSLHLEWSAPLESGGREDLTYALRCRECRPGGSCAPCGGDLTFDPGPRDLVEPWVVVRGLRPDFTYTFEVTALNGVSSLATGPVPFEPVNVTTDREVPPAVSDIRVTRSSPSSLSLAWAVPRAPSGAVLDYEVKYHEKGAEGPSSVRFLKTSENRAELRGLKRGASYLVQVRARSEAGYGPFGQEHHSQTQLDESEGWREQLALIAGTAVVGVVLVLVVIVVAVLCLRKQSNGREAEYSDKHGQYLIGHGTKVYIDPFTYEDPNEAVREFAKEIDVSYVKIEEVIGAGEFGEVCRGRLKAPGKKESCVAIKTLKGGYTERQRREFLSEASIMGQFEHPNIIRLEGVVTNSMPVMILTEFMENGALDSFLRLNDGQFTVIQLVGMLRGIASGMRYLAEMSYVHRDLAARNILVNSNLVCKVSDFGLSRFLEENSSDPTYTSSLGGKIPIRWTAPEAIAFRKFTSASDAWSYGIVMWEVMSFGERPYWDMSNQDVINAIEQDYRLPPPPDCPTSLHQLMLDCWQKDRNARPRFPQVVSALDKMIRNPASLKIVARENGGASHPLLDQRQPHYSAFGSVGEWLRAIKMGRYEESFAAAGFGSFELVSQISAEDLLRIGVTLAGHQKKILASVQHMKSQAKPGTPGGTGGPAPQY

[8] = target: Tyrosine-protein kinase ZAP-70 (Homo sapiens) (UniProt P43403); experiment: Inhibition of ZAP70 (unknown origin) at 1 uM preincubated for 10 mins followed by substrate addition measured for 60 to 120 mins by HTRF assay relative to control; conditions: time 70-130 min
Sequence of Tyrosine-protein kinase ZAP-70 (Homo sapiens) (P43403 whole entry): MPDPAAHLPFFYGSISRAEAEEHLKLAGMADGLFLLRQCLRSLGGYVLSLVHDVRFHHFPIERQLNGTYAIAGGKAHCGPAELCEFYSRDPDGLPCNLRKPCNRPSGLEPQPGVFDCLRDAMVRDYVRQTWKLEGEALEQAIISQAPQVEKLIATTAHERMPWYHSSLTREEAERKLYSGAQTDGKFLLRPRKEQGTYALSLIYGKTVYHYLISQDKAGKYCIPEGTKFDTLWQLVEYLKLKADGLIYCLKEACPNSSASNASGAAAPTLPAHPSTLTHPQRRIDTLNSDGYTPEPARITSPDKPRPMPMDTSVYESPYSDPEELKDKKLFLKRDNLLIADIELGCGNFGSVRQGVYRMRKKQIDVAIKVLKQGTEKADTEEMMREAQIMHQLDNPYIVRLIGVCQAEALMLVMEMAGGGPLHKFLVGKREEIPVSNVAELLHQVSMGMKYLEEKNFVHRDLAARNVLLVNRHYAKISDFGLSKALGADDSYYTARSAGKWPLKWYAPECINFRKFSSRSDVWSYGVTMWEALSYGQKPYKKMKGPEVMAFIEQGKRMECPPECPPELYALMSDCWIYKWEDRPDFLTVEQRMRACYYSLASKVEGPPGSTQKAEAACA

[9] = target: Tyrosine-protein kinase Lck (Homo sapiens) (UniProt P06239); experiment: Inhibition of LCK (unknown origin) at 1 uM preincubated for 10 mins followed by substrate addition measured for 60 to 120 mins by HTRF assay relative to control; conditions: time 70-130 min
C1498 [10] = experiment: Downregulation of STAT5 S726 expression in mouse C1498 cells allografted in AML Balb/C mouse model administered orally daily for 15 days measured after 3 weeks by Western blot analysis; format: functional, cell-based; conditions: dose 40-80 mg/kg, route po, time 15.0 day
[11] = target: Ephrin type-A receptor 5 (Homo sapiens) (UniProt P54756); experiment: Inhibition of EPHA5 (unknown origin) at 1 uM preincubated for 10 mins followed by substrate addition measured for 60 to 120 mins by HTRF assay relative to control; conditions: time 70-130 min
Sequence of Ephrin type-A receptor 5 (Homo sapiens) (P54756 whole entry): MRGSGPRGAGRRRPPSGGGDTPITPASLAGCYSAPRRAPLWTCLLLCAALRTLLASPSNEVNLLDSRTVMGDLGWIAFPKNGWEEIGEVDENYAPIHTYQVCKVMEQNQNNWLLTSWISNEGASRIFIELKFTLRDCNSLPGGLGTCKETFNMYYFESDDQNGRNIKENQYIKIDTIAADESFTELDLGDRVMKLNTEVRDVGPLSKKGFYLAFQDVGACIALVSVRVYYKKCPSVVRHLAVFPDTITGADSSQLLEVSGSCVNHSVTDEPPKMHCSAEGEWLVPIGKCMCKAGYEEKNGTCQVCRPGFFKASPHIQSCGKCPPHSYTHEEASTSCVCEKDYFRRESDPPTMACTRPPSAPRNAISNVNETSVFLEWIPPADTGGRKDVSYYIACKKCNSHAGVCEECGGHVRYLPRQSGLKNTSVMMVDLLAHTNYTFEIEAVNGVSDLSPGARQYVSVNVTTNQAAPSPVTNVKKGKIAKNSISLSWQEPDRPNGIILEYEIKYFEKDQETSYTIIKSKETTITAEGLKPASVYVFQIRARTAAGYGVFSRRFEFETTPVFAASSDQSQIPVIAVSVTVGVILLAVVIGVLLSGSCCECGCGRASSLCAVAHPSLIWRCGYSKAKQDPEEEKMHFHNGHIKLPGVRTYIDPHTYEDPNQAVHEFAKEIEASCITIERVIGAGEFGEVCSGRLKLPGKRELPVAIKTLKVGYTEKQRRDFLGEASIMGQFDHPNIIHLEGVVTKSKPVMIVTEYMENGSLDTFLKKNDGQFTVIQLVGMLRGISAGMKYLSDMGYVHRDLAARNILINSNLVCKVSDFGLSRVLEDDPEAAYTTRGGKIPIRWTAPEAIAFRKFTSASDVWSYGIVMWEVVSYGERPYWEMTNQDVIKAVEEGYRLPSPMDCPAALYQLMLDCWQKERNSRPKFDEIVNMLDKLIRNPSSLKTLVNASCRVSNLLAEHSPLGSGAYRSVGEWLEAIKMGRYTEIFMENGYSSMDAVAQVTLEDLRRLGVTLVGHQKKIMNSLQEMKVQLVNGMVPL

[12] = target: Activated CDC42 kinase 1 (Homo sapiens) (UniProt Q07912); experiment: Inhibition of ACK (unknown origin) at 1 uM preincubated for 10 mins followed by substrate addition measured for 60 to 120 mins by HTRF assay relative to control; conditions: time 70-130 min
[13] = target: Tyrosine-protein kinase ABL2 (Homo sapiens) (UniProt P42684); experiment: Inhibition of ABL2 (unknown origin) at 1 uM preincubated for 10 mins followed by substrate addition measured for 60 to 120 mins by HTRF assay relative to control; conditions: time 70-130 min
Sequence of Tyrosine-protein kinase ABL2 (Homo sapiens) (P42684 whole entry): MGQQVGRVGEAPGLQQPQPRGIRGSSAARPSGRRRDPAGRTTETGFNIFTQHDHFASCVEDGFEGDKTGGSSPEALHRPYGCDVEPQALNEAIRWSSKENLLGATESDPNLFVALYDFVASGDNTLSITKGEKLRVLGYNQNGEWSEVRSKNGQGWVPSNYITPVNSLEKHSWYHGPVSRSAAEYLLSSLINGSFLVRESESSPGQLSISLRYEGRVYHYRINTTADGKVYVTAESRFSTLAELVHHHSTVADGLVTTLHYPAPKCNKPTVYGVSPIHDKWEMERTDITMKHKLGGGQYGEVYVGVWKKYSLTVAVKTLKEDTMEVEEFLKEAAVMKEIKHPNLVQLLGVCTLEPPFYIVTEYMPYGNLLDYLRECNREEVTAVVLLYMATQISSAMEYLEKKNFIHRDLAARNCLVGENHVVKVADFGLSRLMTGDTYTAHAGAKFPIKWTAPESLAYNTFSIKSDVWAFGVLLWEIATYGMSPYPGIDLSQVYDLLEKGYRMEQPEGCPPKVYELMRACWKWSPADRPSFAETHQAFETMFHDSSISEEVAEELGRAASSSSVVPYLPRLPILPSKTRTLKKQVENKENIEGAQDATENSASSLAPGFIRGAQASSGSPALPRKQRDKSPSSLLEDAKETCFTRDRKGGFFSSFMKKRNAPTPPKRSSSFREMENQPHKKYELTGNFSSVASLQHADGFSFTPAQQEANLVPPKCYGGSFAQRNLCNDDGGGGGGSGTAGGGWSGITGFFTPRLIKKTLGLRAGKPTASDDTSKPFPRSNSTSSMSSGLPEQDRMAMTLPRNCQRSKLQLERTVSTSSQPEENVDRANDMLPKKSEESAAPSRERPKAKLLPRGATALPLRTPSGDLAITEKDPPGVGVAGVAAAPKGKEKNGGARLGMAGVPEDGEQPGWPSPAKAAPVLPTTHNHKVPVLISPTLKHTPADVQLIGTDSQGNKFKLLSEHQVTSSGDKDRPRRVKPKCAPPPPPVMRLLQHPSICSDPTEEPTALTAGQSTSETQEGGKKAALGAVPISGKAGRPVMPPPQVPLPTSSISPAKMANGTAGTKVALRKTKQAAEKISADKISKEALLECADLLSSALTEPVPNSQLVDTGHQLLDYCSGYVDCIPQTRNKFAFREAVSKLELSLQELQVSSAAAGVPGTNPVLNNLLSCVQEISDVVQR

[14] = target: CDK9/cyclin T1 (Homo sapiens) (UniProt O60563+P50750); experiment: Inhibition of CDK9/Cyclin T1 (unknown origin) at 1 uM preincubated for 10 mins followed by substrate addition measured for 60 to 120 mins by HTRF assay relative to control; format: protein-complex assay; conditions: time 70-130 min
[15] = target: Muscle, skeletal receptor tyrosine-protein kinase (Homo sapiens) (UniProt O15146); experiment: Inhibition of MUSK (unknown origin) at 1 uM preincubated for 10 mins followed by substrate addition measured for 60 to 120 mins by HTRF assay relative to control; conditions: time 70-130 min
[16] = target: Receptor tyrosine-protein kinase erbB-2 (Homo sapiens) (UniProt P04626); experiment: Inhibition of HER2 (unknown origin) at 1 uM preincubated for 10 mins followed by substrate addition measured for 60 to 120 mins by HTRF assay relative to control; conditions: time 70-130 min
[17] = target: CDK4/Cyclin D3 (Homo sapiens) (UniProt P11802+P30281); experiment: Inhibition of CDK4/Cyclin D3 (unknown origin) at 1 uM preincubated for 10 mins followed by substrate addition measured for 60 to 120 mins by HTRF assay relative to control; format: protein-complex assay; conditions: time 70-130 min
HCT-116 = experiment: Downregulation of STAT1 S727 expression in IFNgamma-stimulated human HCT-116 cells incubated for 12 hrs followed by IFNgamma stimulation for 3 hrs by Western blot analysis; format: functional, cell-based; conditions: dose 1-10 µM
[18] = Tmax in Sprague-Dawley rat at 2 mg/kg, iv; format: ADME, organism-based; conditions: in vivo
[19] = target: Cyclin-dependent kinase 13/Cyclin-K (Homo sapiens) (UniProt Q14004+O75909); experiment: Inhibition of CDK13/Cyclin K (unknown origin) at 1 uM preincubated for 10 mins followed by substrate addition measured for 60 to 120 mins by HTRF assay relative to control; format: protein-complex assay; conditions: time 70-130 min
[20] = target: Fibroblast growth factor receptor 3 (Homo sapiens) (UniProt P22607); experiment: Inhibition of FGFR3 (unknown origin) at 1 uM preincubated for 10 mins followed by substrate addition measured for 60 to 120 mins by HTRF assay relative to control; conditions: time 70-130 min
Sequence of Fibroblast growth factor receptor 3 (Homo sapiens) (P22607 23-806 limits assumed): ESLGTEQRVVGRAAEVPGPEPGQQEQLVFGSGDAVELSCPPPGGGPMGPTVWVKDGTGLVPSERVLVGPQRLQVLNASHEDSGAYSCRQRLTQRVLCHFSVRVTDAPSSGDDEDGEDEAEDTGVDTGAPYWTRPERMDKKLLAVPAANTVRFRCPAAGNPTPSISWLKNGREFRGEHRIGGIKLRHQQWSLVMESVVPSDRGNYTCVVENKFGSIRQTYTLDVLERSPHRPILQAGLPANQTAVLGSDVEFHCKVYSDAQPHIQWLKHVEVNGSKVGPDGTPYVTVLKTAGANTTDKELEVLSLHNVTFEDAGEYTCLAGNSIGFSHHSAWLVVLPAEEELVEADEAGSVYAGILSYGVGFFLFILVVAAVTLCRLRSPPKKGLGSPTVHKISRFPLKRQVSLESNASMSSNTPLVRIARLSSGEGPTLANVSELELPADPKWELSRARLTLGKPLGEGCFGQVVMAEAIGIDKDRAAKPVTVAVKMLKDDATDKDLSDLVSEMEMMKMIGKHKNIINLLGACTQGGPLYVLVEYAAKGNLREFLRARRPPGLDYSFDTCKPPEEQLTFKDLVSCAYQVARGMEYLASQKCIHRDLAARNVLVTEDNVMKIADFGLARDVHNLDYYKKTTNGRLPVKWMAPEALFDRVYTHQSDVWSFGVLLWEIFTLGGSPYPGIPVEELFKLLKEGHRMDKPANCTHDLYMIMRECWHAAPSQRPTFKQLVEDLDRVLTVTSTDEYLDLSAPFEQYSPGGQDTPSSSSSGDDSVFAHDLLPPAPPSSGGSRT

[21] = target: CDK2/Cyclin A2 (Homo sapiens) (UniProt P24941+P20248); experiment: Inhibition of CDK2/Cyclin A2 (unknown origin) at 1 uM preincubated for 10 mins followed by substrate addition measured for 60 to 120 mins by HTRF assay relative to control; format: protein-complex assay; conditions: time 70-130 min
C1498 [22] = experiment: Antitumor activity against mouse C1498 cells allografted in AML Balb/C mouse model assessed as decrease in Ki67 expression administered orally daily for 15 days measured after 3 weeks by IHC analysis; format: functional, cell-based; conditions: dose 40-80 mg/kg, route po, time 15.0 day
A549 = experiment: Antiproliferative activity against human A549 cells incubated for 48 hrs by CCK8 assay; format: functional
HL-60 [23] = experiment: Induction of apoptosis in human HL-60 cells assessed as late apoptotic cells at 5 uM incubated for 48 hrs by annexin V-FITC/PI staining based flow cytometry (reference value: 1.07 %); format: functional
HL-60 [24] = experiment: Induction of apoptosis in human HL-60 cells assessed as viable cells at 5 uM incubated for 48 hrs by annexin V-FITC/PI staining based flow cytometry (reference value: 96.5 %); format: functional; conditions: read-out: Activity

NC(=O)c1cccc(-c2cnc3[nH]ccc3c2)c1
inhibition [1]: 9.01% | IC50 (CDK9/cyclin T1): 0.711 µM | inhibition [2]: 5.13% | inhibition [3]: 0.43% | GI50 (MDA-MB-231): > 50 µM | GI50 (GES1): > 100 µM | inhibition [4]: 16.2% | Activity [5]: Non-Toxic | inhibition [6]: 0% | inhibition [7]: 0% | inhibition [8]: 0% | inhibition [9]: 1.59% | Activity (C1498 [10]): Dose-Dependent Effect | inhibition [11]: 1% | inhibition [12]: 21.6% | inhibition [13]: 0% | inhibition [14]: 7.41% | inhibition [15]: 3.63% | inhibition [16]: 3.32% | inhibition [17]: 7.02% | Activity (HCT-116): Dose-Dependent Effect | Tmax [18]: 4.98 min | inhibition [19]: 9.63% | inhibition [20]: 10.8% | inhibition [21]: 3.99% | Activity (C1498 [22]): Dose-Dependent Effect | GI50 (A549): > 50 µM | Activity (HL-60 [23]): 1.45% | viability at 5 µM (HL-60 [24]): 9.73%
